Experimental data taken from PMC9272661 (Antiviral Research, 2022).

Key:
SARS-CoV-2 3CLpro [1] = target: T1, SARS-CoV-2 3CLpro (Severe acute respiratory syndrome coronavirus 2, UniProt P0DTD1); test: Enzyme kinetics, Lineweaver-Burk plots; assay type: biochemical; conditions: 200 nM 3CLpro, inhibitor 5 μM or 10 μM
SARS-CoV-2 3CLpro [2] = target: T1, SARS-CoV-2 3CLpro; test: Inhibition of cleavage of TriPro substrate protein; assay type: biochemical; conditions: 0.8 μM 3CLpro, 1 h preincubation, SDS-PAGE
SARS-CoV-2 3CLpro [3] = target: T1, SARS-CoV-2 3CLpro; test: Surface plasmon resonance binding to immobilized 3CLpro; conditions: 0.164-100 μM, 25 °C, n = 3
SARS-CoV-2 3CLpro [4] = target: T1, SARS-CoV-2 3CLpro; test: FRET-based enzymatic assay of 3CLpro; assay type: biochemical; conditions: at 50 μM concentration

Row | Structure (SMILES) | Inhibition Type (SARS-CoV-2 3CLpro [1]) | Inhibition of cleavage of TriPro substrate protein (SARS-CoV-2 3CLpro [2]) | KD (SPR, steady-state affinity model) (SARS-CoV-2 3CLpro [3]) | Inhibitory activity against SARS-CoV-2 3CLpro (SARS-CoV-2 3CLpro [4])
1 | CC(C)(C)OC(=O)NCCOc1ccc(Cl)cc1C(=O)NCC(=O)Nc1ccc([N+](=O)[O-])cc1Cl [JMX0301, Tert-Butyl (2-(4-chloro-2-((2-((2-chloro-4-nitrophenyl)amino)-2-oxoethyl)carbamoyl)phenoxy)ethyl)carbamate] | Non-competitive | inhibited the cleavage of the TriPro substrate protein in a dose dependent manner | did not show binding | 
2 | O=C(Nc1ccc([N+](=O)[O-])cc1Cl)c1cc(Cl)ccc1O [niclosamide] |  |  |  | does not inhibit
3 | Cl.NCCOc1ccc(Cl)cc1C(=O)NCC(=O)Nc1ccc([N+](=O)[O-])cc1Cl [JMX0286, 2-(2-Aminoethoxy)-5-chloro-N-(2-((2-chloro-4-nitrophenyl)amino)-2-oxoethyl)benzamide hydrochloride] | Non-competitive | inhibited the cleavage of the TriPro substrate protein in a dose dependent manner |  | 
